# Measurements published in US20260223844A1, “METHODS AND COMPOSITIONS FOR ALTERING METABOLITES IN HOP PLANTS” (Impello Biosciences, Inc., priority 2023, published 2026).
# Key:
# Type in all cases: in vivo, Humulus lupulus
# [1] = test system: CTZ hop plants; assay: Alpha/beta acid analysis of treated hop plants, Example 4 (HPLC, modified EBC 7.8)
# Method: (§1) Hop plants were treated with illustrative elicitor compositions of the disclosure to determine the effect of treatment on hop bitter acid and terpene content. The hop cultivar was CTZ, also known as Columbus, Tomahawk, or Zeus, three trade names owned by various private corporations for the same variety of hop. The treatments were as follows: 1 mM, 5 mM, and 10 mM MDJ Foliar Spray. Harvested hops were analyzed for total oil, beta acid, alpha acid, and terpene content. Total oil and terpene analysis was performed according to a modified version of Analytica EBC Method 7.12, employing Capillary Gas Chromatography Flame Ionization Detection. Plants were measured in triplicate from each treatment group; results represent the average of three samples. Alpha/beta/iso-alpha acid analysis was performed using HPLC, employing a modified version of Analytica EBC Method 7.8.
# [2] = test system: CTZ hop plants; assay: Terpene analysis of treated hop plants, Example 4 (modified EBC 7.12, GC-FID); conditions: % of overall terpene content; for Terpene content: Geranyl acetate 1*: (2E) isomer; for Terpene content: Geranyl acetate 2**: (2Z) isomer; for Terpene content: Nerolidol 1*: (E) isomer; for Terpene content: Nerolidol 2**: (Z) isomer
# Method: as §1
# [3] = test system: Cashmere Hops; assay: Terpene analysis of treated hop plants, Example 2 (EBC 7.12, GC-FID); conditions: 5 mM MDJ foliar spray vs control
# Method: (§2) Hop plants were treated with illustrative elicitor compositions of the disclosure to determine the effect of treatment on hop terpene content. The hop cultivar was Cashmere Hops. The treatments were as follows: Control (“CK2”)—Untreated control; TR1—1 mM MDJ Foliar Spray: TR2—5 mM MDJ Foliar Spray.
# (§3) Harvested hops were analyzed for total oil, beta acid, alpha acid, terpene, and thiol content. Total oil analysis was performed according to Analytica EBC Method 7.10, employing steam distillation. Alpha/beta/iso-alpha acid analysis was performed using HPLC, employing a modified version of Analytica EBC Method 7.8. Terpene analysis was performed according to Analytica EBC Method 7.12, employing Capillary Gas Chromatography Flame Ionization Detection. Thiol composition was analyzed via gas chromatography with sulfur chemiluminescence detector (GC-SCD).
# [4] = test system: CTZ hop plants; assay: Total oil analysis of treated hop plants, Example 4
# Method: as §1
# [5] = test system: Cashmere Hops; assay: Bitter acids analysis of treated hop plants, Example 2 (HPLC, modified EBC 7.8); conditions: MDJ foliar spray 1 mM or 5 mM vs untreated control
# Method: as §2, §3
compound,measurement,setting,value
"CCCCCC1C(=O)CCC1CC(=O)OC (stereo not drawn) [MDJ, methyl dihydrojasmonate]",Alpha Acids,[1]; 1 mM MDJ foliar spray,4.83%
same,Beta Acids,[1]; 1 mM MDJ foliar spray,3.53%
same,Cohumulone,[1]; 1 mM MDJ foliar spray,21.43 % alpha
same,Colupulone,[1]; 1 mM MDJ foliar spray,43.53 % beta
same,Alpha Acids,[1]; 5 mM MDJ foliar spray,6.10%
same,Beta Acids,[1]; 5 mM MDJ foliar spray,3.83%
same,Cohumulone,[1]; 5 mM MDJ foliar spray,23.37 % alpha
same,Colupulone,[1]; 5 mM MDJ foliar spray,49.3 % beta
same,Alpha Acids,[1]; 10 mM MDJ foliar spray,7.80%
same,Beta Acids,[1]; 10 mM MDJ foliar spray,4.23%
same,Cohumulone,[1]; 10 mM MDJ foliar spray,26.03 % alpha
same,Colupulone,[1]; 10 mM MDJ foliar spray,43.47 % beta
same,"Colupolone content, as a percentage of overall beta acids","[1]; 1, 5, 10 mM MDJ foliar spray",highest at 5 mM treatment
same,alpha acid content,"[1]; 1, 5, 10 mM MDJ foliar spray",dose-dependent increase
same,beta acid content,"[1]; 1, 5, 10 mM MDJ foliar spray",dose-dependent increase
same,Cohumulone content as a percentage of overall alpha acids,"[1]; with increasing MDJ concentration (1, 5, 10 mM)",increased
same,Terpene content: 2-Undecanone,[2]; 1 mM MDJ foliar spray,0.00%
same,Terpene content: Alpha-pinene,[2]; 1 mM MDJ foliar spray,0.37%
same,Terpene content: Beta-ionone,[2]; 1 mM MDJ foliar spray,0.08%
same,Terpene content: Beta-pinene,[2]; 1 mM MDJ foliar spray,0.36%
same,Terpene content: Caryophyllene,[2]; 1 mM MDJ foliar spray,16.6%
same,Terpene content: Caryophyllene oxide,[2]; 1 mM MDJ foliar spray,0.12%
same,Terpene content: Citral,[2]; 1 mM MDJ foliar spray,0.32%
same,Terpene content: Citronellene,[2]; 1 mM MDJ foliar spray,0.42%
same,Terpene content: Citronellol,[2]; 1 mM MDJ foliar spray,0.00%
same,Terpene content: Farnesene,[2]; 1 mM MDJ foliar spray,0.00%
same,Terpene content: Geraniol,[2]; 1 mM MDJ foliar spray,0.52%
same,Terpene content: Humulene,[2]; 1 mM MDJ foliar spray,38.7%
same,Terpene content: Limonene,[2]; 1 mM MDJ foliar spray,0.10%
same,Terpene content: Linalool,[2]; 1 mM MDJ foliar spray,0.21%
same,Terpene content: Methyl Heptanoate,[2]; 1 mM MDJ foliar spray,0.06%
same,Terpene content: Methyl Laurate,[2]; 1 mM MDJ foliar spray,0.39%
same,Terpene content: Methyl Octanoate,[2]; 1 mM MDJ foliar spray,0.44%
same,Terpene content: Methyl thiohexanoate,[2]; 1 mM MDJ foliar spray,0.05%
same,Terpene content: Myrcene,[2]; 1 mM MDJ foliar spray,27.0%
same,Terpene content: Nerol,[2]; 1 mM MDJ foliar spray,0.03%
same,Terpene content: Ocimene,[2]; 1 mM MDJ foliar spray,0.39%
same,Terpene content: Terpinolene,[2]; 1 mM MDJ foliar spray,0.25%
same,Terpene content: Unidentified,[2]; 1 mM MDJ foliar spray,13.0%
same,Terpene content: Geranyl acetate 1*,[2]; 1 mM MDJ foliar spray,0.38%
same,Terpene content: Geranyl acetate 2**,[2]; 1 mM MDJ foliar spray,0.07%
same,Terpene content: Nerolidol 1*,[2]; 1 mM MDJ foliar spray,0.09%
same,Terpene content: Nerolidol 2**,[2]; 1 mM MDJ foliar spray,0.06%
same,Terpene content: 2-Undecanone,[2]; 5 mM MDJ foliar spray,0.01%
same,Terpene content: Alpha-pinene,[2]; 5 mM MDJ foliar spray,0.14%
same,Terpene content: Beta-ionone,[2]; 5 mM MDJ foliar spray,0.59%
same,Terpene content: Beta-pinene,[2]; 5 mM MDJ foliar spray,0.35%
same,Terpene content: Caryophyllene,[2]; 5 mM MDJ foliar spray,13.4%
same,Terpene content: Caryophyllene oxide,[2]; 5 mM MDJ foliar spray,0.04%
same,Terpene content: Citral,[2]; 5 mM MDJ foliar spray,0.11%
same,Terpene content: Citronellene,[2]; 5 mM MDJ foliar spray,0.42%
same,Terpene content: Citronellol,[2]; 5 mM MDJ foliar spray,0.00%
same,Terpene content: Farnesene,[2]; 5 mM MDJ foliar spray,0.03%
same,Terpene content: Geraniol,[2]; 5 mM MDJ foliar spray,0.78%
same,Terpene content: Humulene,[2]; 5 mM MDJ foliar spray,27.3%
same,Terpene content: Limonene,[2]; 5 mM MDJ foliar spray,0.09%
same,Terpene content: Linalool,[2]; 5 mM MDJ foliar spray,0.31%
same,Terpene content: Methyl Heptanoate,[2]; 5 mM MDJ foliar spray,0.05%
same,Terpene content: Methyl Laurate,[2]; 5 mM MDJ foliar spray,0.11%
same,Terpene content: Methyl Octanoate,[2]; 5 mM MDJ foliar spray,0.31%
same,Terpene content: Methyl thiohexanoate,[2]; 5 mM MDJ foliar spray,0.05%
same,Terpene content: Myrcene,[2]; 5 mM MDJ foliar spray,39.0%
same,Terpene content: Nerol,[2]; 5 mM MDJ foliar spray,0.00%
same,Terpene content: Ocimene,[2]; 5 mM MDJ foliar spray,0.28%
same,Terpene content: Terpinolene,[2]; 5 mM MDJ foliar spray,0.11%
same,Terpene content: Unidentified,[2]; 5 mM MDJ foliar spray,15.7%
same,Terpene content: Geranyl acetate 1*,[2]; 5 mM MDJ foliar spray,0.43%
same,Terpene content: Geranyl acetate 2**,[2]; 5 mM MDJ foliar spray,0.11%
same,Terpene content: Nerolidol 1*,[2]; 5 mM MDJ foliar spray,0.14%
same,Terpene content: Nerolidol 2**,[2]; 5 mM MDJ foliar spray,0.12%
same,Terpene content: 2-Undecanone,[2]; 10 mM MDJ foliar spray,0.07%
same,Terpene content: Alpha-pinene,[2]; 10 mM MDJ foliar spray,0.11%
same,Terpene content: Beta-ionone,[2]; 10 mM MDJ foliar spray,0.52%
same,Terpene content: Beta-pinene,[2]; 10 mM MDJ foliar spray,0.54%
same,Terpene content: Caryophyllene,[2]; 10 mM MDJ foliar spray,13.2%
same,Terpene content: Caryophyllene oxide,[2]; 10 mM MDJ foliar spray,0.07%
same,Terpene content: Citral,[2]; 10 mM MDJ foliar spray,0.20%
same,Terpene content: Citronellene,[2]; 10 mM MDJ foliar spray,0.39%
same,Terpene content: Citronellol,[2]; 10 mM MDJ foliar spray,0.00%
same,Terpene content: Farnesene,[2]; 10 mM MDJ foliar spray,0.02%
same,Terpene content: Geraniol,[2]; 10 mM MDJ foliar spray,0.82%
same,Terpene content: Humulene,[2]; 10 mM MDJ foliar spray,24.7%
same,Terpene content: Limonene,[2]; 10 mM MDJ foliar spray,0.09%
same,Terpene content: Linalool,[2]; 10 mM MDJ foliar spray,0.31%
same,Terpene content: Methyl Heptanoate,[2]; 10 mM MDJ foliar spray,0.06%
same,Terpene content: Methyl Laurate,[2]; 10 mM MDJ foliar spray,0.19%
same,Terpene content: Methyl Octanoate,[2]; 10 mM MDJ foliar spray,0.24%
same,Terpene content: Methyl thiohexanoate,[2]; 10 mM MDJ foliar spray,0.02%
same,Terpene content: Myrcene,[2]; 10 mM MDJ foliar spray,39.6%
same,Terpene content: Nerol,[2]; 10 mM MDJ foliar spray,0.02%
same,Terpene content: Ocimene,[2]; 10 mM MDJ foliar spray,0.16%
same,Terpene content: Terpinolene,[2]; 10 mM MDJ foliar spray,0.05%
same,Terpene content: Unidentified,[2]; 10 mM MDJ foliar spray,17.8%
same,Terpene content: Geranyl acetate 1*,[2]; 10 mM MDJ foliar spray,0.38%
same,Terpene content: Geranyl acetate 2**,[2]; 10 mM MDJ foliar spray,0.09%
same,Terpene content: Nerolidol 1*,[2]; 10 mM MDJ foliar spray,0.17%
same,Terpene content: Nerolidol 2**,[2]; 10 mM MDJ foliar spray,0.22%
same,caryophyllene content,[3],increased
same,caryophyllene oxide content,[3],decreased
same,citral content,[3],decreased
same,farnesene content,[3],increased
same,geraniol content,[3],increased
same,humulene content,[3],increased
same,methyl heptanoate content,[3],decreased
same,methyl laurate content,[3],decreased
same,methyl octanoate content,[3],increased
same,methyl thiohexanoate content,[3],increased
same,myrcene content,[3],decreased
same,nerolidol content,[3],increased
same,ocimene content,[3],increased
same,q-pinene content,[3],increased
same,β-pinene content,[3],decreased
same,Total oil,[4]; 1 mM MDJ foliar spray,1.43 mL/100 g
same,Total oil,[4]; 5 mM MDJ foliar spray,2.22 mL/100 g
same,Total oil,[4]; 10 mM MDJ foliar spray,1.72 mL/100 g
same,content of the alpha acid analogue cohumulone,[5],decreased
same,beta acid content,[5]; especially at 5 mM,statistically significant increase
